Publication PMC12196347, “Evaluating Triazole-Substituted Pyrrolopyrimidines as CSF1R Inhibitors” (Molecules, 2025)
≈ marks a conversion by molar mass, not a printed value.

Tests used:
[1] = tested on: IL-3 dependent Ba/F3 cell line (CSF1R independent); experiment: Control assay for cellular toxicity, Ba/F3 cells dependent on IL-3; format: cell-based; conditions: Mus musculus, BaF3; Ba/F3 cells dependent on IL-3, control for cellular toxicity
CSF1R = biological target: T1, CSF1R (Homo sapiens, UniProt P07333); experiment: CSF1R enzymatic inhibition, TR-FRET-based LANCE Ultra assay; format: biochemical; conditions: single 8-point titrations, ATP concentration 25 µM, read-out: Enz. IC50
T1 sequence (P07333 539-972 limits assumed): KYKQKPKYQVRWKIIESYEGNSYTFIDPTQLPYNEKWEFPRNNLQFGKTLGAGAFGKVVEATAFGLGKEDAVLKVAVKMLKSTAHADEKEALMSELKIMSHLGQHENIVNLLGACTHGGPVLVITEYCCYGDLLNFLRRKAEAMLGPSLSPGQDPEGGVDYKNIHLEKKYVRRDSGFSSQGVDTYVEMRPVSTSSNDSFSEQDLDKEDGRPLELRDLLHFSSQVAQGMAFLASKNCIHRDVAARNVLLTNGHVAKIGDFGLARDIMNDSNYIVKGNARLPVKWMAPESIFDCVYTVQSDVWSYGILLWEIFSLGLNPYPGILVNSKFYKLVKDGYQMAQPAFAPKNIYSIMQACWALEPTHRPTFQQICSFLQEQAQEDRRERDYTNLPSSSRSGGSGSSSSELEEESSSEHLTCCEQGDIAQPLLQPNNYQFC

[2] = Kinetic solubility, spectrophotometric; format: physicochemical; conditions: aqueous buffer, kinetic from dmso stock, spectrophotometrically at pH 7.4 in HEPES buffer
CSF1R Ba/F3 cells = experiment: Cell viability assay, Ba/F3 cells engineered to be dependent on CSF1R; format: cell-based; conditions: duplicate measurements; for IC50: Mus musculus, BaF3, Ba/F3 cells dependent on CSF1R; for CSF1R Ba/F3 IC50: Ba/F3 cells dependent on CSF1R

Row | SMILES | IC50 [1] [nM] | IC50 (CSF1R) [nM] | solubility kinetic [2] [µM] | IC50 (CSF1R Ba/F3 cells) [nM] | CSF1R Ba/F3 IC50 (CSF1R Ba/F3 cells)
1 | Cc1cccc(CN(C)c2ncnc3[nH]c(-c4cn(-c5ccccc5)nn4)cc23)c1 [Compound 18a, N-Methyl-N-(3-methylbenzyl)-6-(1-phenyl-1H-1,2,3-triazol-4-yl)-7H-pyrrolo[2,3-d]pyrimidin-4-amine] | > 10000 | 1.9 | 0.3 (≈ 0.119 µg/mL) | > 10000 | –
2 | CN(CC1CCOCC1)c1ncnc2[nH]c(-c3cn(-c4ccccc4)nn3)cc12 [Compound 18b, N-Methyl-6-(1-phenyl-1H-1,2,3-triazol-4-yl)-N-((tetrahydro-2H-pyran-4-yl)methyl)-7H-pyrrolo[2,3-d]pyrimidin-4-amine] | > 10000 | – | 14 (≈ 5.45 µg/mL) | > 10000 | –
3 | Cc1cccc(CN(C)c2ncnc3[nH]c(-c4cn(-c5ccc(F)cc5)nn4)cc23)c1 [Compound 19a, 6-(1-(4-Fluorophenyl)-1H-1,2,3-triazol-4-yl)-N-methyl-N-(3-methylbenzyl)-7H-pyrrolo[2,3-d]pyrimidin-4-amine] | > 10000 | 7.7 | 0.4 (≈ 0.165 µg/mL) | > 10000 | –
4 | CN(CC1CCOCC1)c1ncnc2[nH]c(-c3cn(-c4ccc(F)cc4)nn3)cc12 [Compound 19b, 6-(1-(4-Fluorophenyl)-1H-1,2,3-triazol-4-yl)-N-methyl-N-((tetrahydro-2H-pyran-4-yl)methyl)-7H-pyrrolo[2,3-d]pyrimidin-4-amine] | > 10000 | 2.1 | 11 (≈ 4.48 µg/mL) | > 10000 | No measurable cell activity
5 | Cc1ccc(-n2cc(-c3cc4c(N(C)Cc5cccc(C)c5)ncnc4[nH]3)nn2)cc1 [Compound 20a, N-Methyl-N-(3-methylbenzyl)-6-(1-(p-tolyl)-1H-1,2,3-triazol-4-yl)-7H-pyrrolo[2,3-d]pyrimidin-4-amine] | > 10000 | 28.2 | 3 (≈ 1.23 µg/mL) | > 10000 | –
6 | Cc1ccc(-n2cc(-c3cc4c(N(C)CC5CCOCC5)ncnc4[nH]3)nn2)cc1 [Compound 20b, N-Methyl-N-((tetrahydro-2H-pyran-4-yl)methyl)-6-(1-(p-tolyl)-1H-1,2,3-triazol-4-yl)-7H-pyrrolo[2,3-d]pyrimidin-4-amine] | > 10000 | 9.1 | 0.7 (≈ 0.282 µg/mL) | 3200 ± 900 | –
7 | COc1ccc(-n2cc(-c3cc4c(N(C)Cc5cccc(C)c5)ncnc4[nH]3)nn2)cc1 [Compound 21a, 6-(1-(4-Methoxyphenyl)-1H-1,2,3-triazol-4-yl)-N-methyl-N-(3-methylbenzyl)-7H-pyrrolo[2,3-d]pyrimidin-4-amine] | > 10000 | 5.9 | 1.3 (≈ 0.553 µg/mL) | 6000 | –
8 | Cc1cccc(CN(C)c2ncnc3[nH]c(-c4cn(-c5cccnc5)nn4)cc23)c1 [Compound 22a, N-Methyl-N-(3-methylbenzyl)-6-(1-(pyridin-3-yl)-1H-1,2,3-triazol-4-yl)-7H-pyrrolo[2,3-d]pyrimidin-4-amine] | > 10000 | 2.3 | 11 (≈ 4.36 µg/mL) | 1200 ± 200 | –
9 | CN(CC1CCOCC1)c1ncnc2[nH]c(-c3cn(-c4cccnc4)nn3)cc12 [Compound 22b, N-Methyl-6-(1-(pyridin-3-yl)-1H-1,2,3-triazol-4-yl)-N-((tetrahydro-2H-pyran-4-yl)methyl)-7H-pyrrolo[2,3-d]pyrimidin-4-amine] | > 10000 | 2.1 | 37 (≈ 14.4 µg/mL) | 1600 ± 300 | –
10 | Cc1cccc(CN(C)c2ncnc3[nH]c(-c4cn(Cc5ccccc5)nn4)cc23)c1 [Compound 23a, 6-(1-Benzyl-1H-1,2,3-triazol-4-yl)-N-methyl-N-(3-methylbenzyl)-7H-pyrrolo[2,3-d]pyrimidin-4-amine] | > 10000 | 2 | 0.3 (≈ 0.123 µg/mL) | > 10000 | –
11 | CN(CC1CCOCC1)c1ncnc2[nH]c(-c3cn(Cc4ccccc4)nn3)cc12 [Compound 23b, 6-(1-Benzyl-1H-1,2,3-triazol-4-yl)-N-methyl-N-((tetrahydro-2H-pyran-4-yl)methyl)-7H-pyrrolo[2,3-d]pyrimidin-4-amine] | > 10000 | < 1 | 4.9 (≈ 1.98 µg/mL) | 3700 ± 1900 | –
12 | Cc1cccc(CN(C)c2ncnc3[nH]c(-c4cn(Cc5ccc(F)cc5)nn4)cc23)c1 [Compound 24a, 6-(1-(4-Fluorobenzyl)-1H-1,2,3-triazol-4-yl)-N-methyl-N-(3-methylbenzyl)-7H-pyrrolo[2,3-d]pyrimidin-4-amine] | > 10000 | 2 | 0.2 (≈ 0.0855 µg/mL) | > 10000 | –
13 | CN(CC1CCOCC1)c1ncnc2[nH]c(-c3cn(Cc4ccc(F)cc4)nn3)cc12 [Compound 24b, 6-(1-(4-Fluorobenzyl)-1H-1,2,3-triazol-4-yl)-N-methyl-N-((tetrahydro-2H-pyran-4-yl)methyl)-7H-pyrrolo[2,3-d]pyrimidin-4-amine] | > 10000 | 1.5 | 1.7 (≈ 0.717 µg/mL) | 4600 ± 2700 | –
14 | Cc1ccc(Cn2cc(-c3cc4c(N(C)Cc5cccc(C)c5)ncnc4[nH]3)nn2)cc1 [Compound 25a, N-Methyl-N-(3-methylbenzyl)-6-(1-(4-methylbenzyl)-1H-1,2,3-triazol-4-yl)-7H-pyrrolo[2,3-d]pyrimidin-4-amine] | > 10000 | 6.3 | 1.1 (≈ 0.466 µg/mL) | > 10000 | –
15 | COc1ccc(Cn2cc(-c3cc4c(N(C)Cc5cccc(C)c5)ncnc4[nH]3)nn2)cc1 [Compound 26a, 6-(1-(4-Methoxybenzyl)-1H-1,2,3-triazol-4-yl)-N-methyl-N-(3-methylbenzyl)-7H-pyrrolo[2,3-d]pyrimidin-4-amine] | > 10000 | 5.8 | 4.6 (≈ 2.02 µg/mL) | 2800 ± 300 | –
16 | COc1ccc(Cn2cc(-c3cc4c(N(C)CC5CCOCC5)ncnc4[nH]3)nn2)cc1 [Compound 26b, 6-(1-(4-Methoxybenzyl)-1H-1,2,3-triazol-4-yl)-N-methyl-N-((tetrahydro-2H-pyran-4-yl)methyl)-7H-pyrrolo[2,3-d]pyrimidin-4-amine] | > 10000 | < 1 | 7.2 (≈ 3.12 µg/mL) | 1500 ± 500 | –
17 | Cc1cccc(CN(C)c2ncnc3[nH]c(-c4cn(CCCO)nn4)cc23)c1 [Compound 28a, 3-(4-(4-(Methyl(3-methylbenzyl)amino)-7H-pyrrolo[2,3-d]pyrimidin-6-yl)-1H-1,2,3-triazol-1-yl)propan-1-ol] | > 10000 | < 1 | 5.5 (≈ 2.08 µg/mL) | 1000 ± 100 | –
18 | CN(CC1CCOCC1)c1ncnc2[nH]c(-c3cn(CCCO)nn3)cc12 [Compound 28b, 3-(4-(4-(Methyl((tetrahydro-2H-pyran-4-yl)methyl)amino)-7H-pyrrolo[2,3-d]pyrimidin-6-yl)-1H-1,2,3-triazol-1-yl)propan-1-ol] | > 10000 | 1.1 | 495 (≈ 184 µg/mL) | > 10000 | inactive
19 | Cc1cccc(CN(C)c2ncnc3[nH]c(-c4cn(C5CCOCC5)nn4)cc23)c1 [Compound 29a, N-Methyl-N-(3-methylbenzyl)-6-(1-(tetrahydro-2H-pyran-4-yl)-1H-1,2,3-triazol-4-yl)-7H-pyrrolo[2,3-d]pyrimidin-4-amine] | > 10000 | < 1 | 20 (≈ 8.07 µg/mL) | > 10000 | –
20 | CN(CC1CCOCC1)c1ncnc2[nH]c(-c3cn(C4CCOCC4)nn3)cc12 [Compound 29b, N-Methyl-6-(1-(tetrahydro-2H-pyran-4-yl)-1H-1,2,3-triazol-4-yl)-N-((tetrahydro-2H-pyran-4-yl)methyl)-7H-pyrrolo[2,3-d]pyrimidin-4-amine] | > 10000 | < 1 | 76 (≈ 30.2 µg/mL) | > 10000 | No measurable cell activity
21 | Cc1cccc(CN(C)c2ncnc3[nH]c(-c4cn(C5CCN(C)CC5)nn4)cc23)c1 [Compound 30a, N-Methyl-N-(3-methylbenzyl)-6-(1-(1-methylpiperidin-4-yl)-1H-1,2,3-triazol-4-yl)-7H-pyrrolo[2,3-d]pyrimidin-4-amine] | > 10000 | < 1 | 51 (≈ 21.2 µg/mL) | 1100 ± 100 | –
22 | CN1CCC(n2cc(-c3cc4c(N(C)CC5CCOCC5)ncnc4[nH]3)nn2)CC1 [Compound 30b, N-Methyl-6-(1-(1-methylpiperidin-4-yl)-1H-1,2,3-triazol-4-yl)-N-((tetrahydro-2H-pyran-4-yl)methyl)-7H-pyrrolo[2,3-d]pyrimidin-4-amine] | > 10000 | < 1 | 42 (≈ 17.2 µg/mL) | 2400 ± 500 | –
23 | Cc1cccc(CN(C)c2ncnc3[nH]c(-c4cn(CC5CCOCC5)nn4)cc23)c1 [Compound 31a, N-Methyl-N-(3-methylbenzyl)-6-(1-((tetrahydro-2H-pyran-4-yl)methyl)-1H-1,2,3-triazol-4-yl)-7H-pyrrolo[2,3-d]pyrimidin-4-amine] | > 10000 | < 1 | 2.5 (≈ 1.04 µg/mL) | 2700 ± 1000 | –
